Results on two molecules are retold here after patent US20250041434A1, “CEA ASSAY FOR PATIENT SELECTION IN CANCER THERAPY” (SANOFI, priority 2021, published 2025).

The data set concerns cancer cells. Nature of the data set: cytotoxic activity of ADC metabolites. It is filed as cell-based. The note with it: through binding to tubulin and inhibition of microtubule polymerization.

Consider `COc1cc2cc(c1Cl)N(C)C(=O)CC(OC(=O)C(C)N(C)C(=O)CCC(C)(C)SC)C1(C)OC1C(C)C1CC(O)(NC(=O)O1)C(OC)C=CC=C(C)C2` (centres unmarked) [Me-DM4], for which the cytotoxic activity entry is reported as “potent cytotoxic activity”.

On to `COc1cc2cc(c1Cl)N(C)C(=O)CC(OC(=O)C(C)N(C)C(=O)CCC(C)(C)S)C1(C)OC1C(C)C1CC(O)(NC(=O)O1)C(OC)/C=C/C=C(\C)C2` (centres unmarked) [DM4, N2′-deacetyl-N-2′(4-methyl-4-mercapto-1-oxopentyl)-maytansine], for which the cytotoxic activity entry is “potent cytotoxic activity”.
